# According to patent US20250214977A1, “STAT6 INHIBITORS AND USES THEREOF” (Kymera Therapeutics, Inc., priority 2024, published 2025):
# Tested on: Phosphorylation of STAT6 in human PBMC (CD19+ B cells)
# Test: Phosphorylated STAT6 (pSTAT6) flow cytometry assay in human PBMC, IL-4 stimulated
# Assay type: cell-based
# Details: compound 1 hour, 1 ng/ml IL-4 for 15 minutes, read-out: STAT6 IL4 pSTAT6 assay in PBMC: Average IC50
# Description: Example 2. Phosphorylated STAT6 (pSTAT6) Flow Cytometry Assay in Human PBMC
# Phosphorylation of STAT6 in human PBMC was quantitatively measured using flow cytometry technology. Human PBMC were seeded in 96-well plates with a density of 0.3 to 0.5 million cells per well in 100 μl fresh media. Compounds were then added to the assay plates with a final top concentration of up to 30 μM in a 1:3 dilution series with total of 9 doses. The assay plates were incubated for 1 hour at 37° C. under 5% CO2. The cells were then stimulated with 1 ng/ml of IL-4 (R&D Systems, Cat #6507-IL) for 15 minutes, followed by fixation for 30 minutes at 4° C. Cells were spun down at 350 g for 5 minutes. The supernatant was removed and cells were washed once with FACS buffer. Cells were permeabilized with 90% MeOH/H2O for 30 minutes at 4° C., followed by one wash with FACS buffer. Non-specific binding were blocked with human Fc for 1 hour at 4 C, followed by one wash with FACS buffer. AF488 conjugated pSTAT6 antibody (BD Biosciences, Cat #612600, 1:100 dilution) and PE conjugated CD19 antibody (BD Biosciences, Cat #341103, 1:50 dilution) diluted in 100 μl FACS buffer was added to each well with overnight incubation at 4° C. Cells were then washed once with FACS buffer and resuspended in 200 μl of FACS buffer for flow cytometry to quantify pSTAT6 in CD19+ B cells. The data was analyzed by GraphPad Prism and the dose dependent pSTAT6 inhibition was fit using the four-parameter inhibitor vs. response nonlinear regression.
row,SMILES,IC50
1,O=C(CCn1ccnn1)N1CCC=C(c2ccc3cc(C(=O)N4CCCCC4)[nH]c3c2)C1 [Example I-123],10 to 100 µM
2,CN(C)C(=O)c1cc2ccc(C3=CCCN(C(=O)C(c4ccc(F)cc4)c4ccc(F)cc4)C3)cc2[nH]1 [Example I-160],> 100 µM
3,CC(=O)c1cc(C(=O)N2CCC=C(c3ccc4cc(C(=O)N(C)C)[nH]c4c3)C2)n[nH]1 [Example I-49],10 to 100 µM
4,CN(C)C(=O)c1nc2cc(C3=CCCN(C(=O)CCn4ccnn4)C3)ccc2o1 [Example I-214],> 100 µM
5,CN(C)C(=O)c1cc2cc(C3=CCCN(C(=O)CCc4ccccn4)C3)ccc2o1 [Example I-268],> 100 µM
6,CN(C)C(=O)c1nc2cc(C3=CCCN(C(=O)CCn4ccnn4)C3)ccc2[nH]1 [Example I-234],> 100 µM
7,CN(C)C(=O)c1cc2cc(C3=CCCN(C(=O)Cn4ccc5ccccc54)C3)ccc2o1 [Example I-274],> 100 µM
8,CN(C)C(=O)c1cc2ccc(C3=CCCN(C(=O)C4CC4F)C3)cc2[nH]1 (stereo not drawn) [Example I-26],> 100 µM
9,CN(C)C(=O)c1cc2ccc(C3=CCCN(C(=O)[C@@H]4C[C@H]4c4ccc(Br)cc4)C3)cc2[nH]1 [Example I-56],10 to 100 µM
10,COC(=O)c1ccc(OCC(=O)N2CCC=C(c3ccc4cc(C(=O)N(C)C)[nH]c4c3)C2)cc1 [Example I-142],> 100 µM
11,CN(C)C(=O)c1cc2ccc(C3=CCCN(C(=O)CCc4nn[nH]n4)C3)cc2[nH]1 [Example I-15],10 to 100 µM
12,CN(C)C(=O)c1cc2cc(C3=CCCN(C(=O)CCc4cn5ccccc5n4)C3)ccc2o1 [Example I-251],> 100 µM
13,CN(C)C(=O)c1cc2cc(C3=CCCN(C(=O)CCn4ccnn4)C3)ccc2s1 [Example I-243],> 100 µM
14,CN(C)C(=O)c1cc2ccc(C3=CCCN(S(=O)(=O)Cc4cccnn4)C3)cc2[nH]1 [Example I-16],> 100 µM
15,C#Cc1cc(C2=CCCN(C(=O)CCn3ccnn3)C2)cc2cc(C(=O)N(C)C)oc12 [Example I-23],> 100 µM
16,CC(=O)N1CCC(c2cccc3c2CC(C(=O)N2CCC=C(c4ccc5oc(C(=O)N(C)C)cc5c4)C2)N(C=O)C3)CC1 (stereo not drawn) [Example I-180],> 100 µM
17,CN(C)C(=O)c1cc2ccc(C3=CCCN(C(=O)c4n[nH]cc4I)C3)cc2[nH]1 [Example I-33],10 to 100 µM
18,CNCc1cccc2c1CC(C(=O)N1CCC=C(c3ccc4oc(C(=O)N(C)C)cc4c3)C1)N(C=O)C2 (stereo not drawn) [Example I-148],> 100 µM
19,CN(C)C(=O)c1cc2cc(C3=CCCN(C(=O)CCn4ccnn4)C3)cnc2[nH]1 [Example I-222],10 to 100 µM
20,CN(C)C(=O)c1cc2cc(C3=CCCN(C(=O)CCc4c[nH]c5ccccc45)C3)ccc2o1 [Example I-300],> 100 µM
21,CN(C)C(=O)c1cc2ccc(C3=CCCN(C(=O)Cn4ccccc4=O)C3)cc2[nH]1 [Example I-316],> 100 µM
22,CN(C)C(=O)c1nc2ccc(C3=CCCN(C(=O)CCn4ccnn4)C3)cc2s1 [Example I-227],10 to 100 µM

row,SMILES,IC50
1,CN(C)C(=O)c1cn2ccc(C3=CCCN(C(=O)CCn4ccnn4)C3)cc2n1 [Example I-289],> 100 µM
2,CC(=O)N1CCc2ccc(CC(=O)N3CCC=C(c4ccc5oc(C(=O)N(C)C)cc5c4)C3)cc2C1 [Example I-193],> 100 µM
3,CN(C)C(=O)c1cc2cc(C3=CCCN(C(=O)CCc4nccc5ccccc45)C3)ccc2o1 [Example I-206],> 100 µM
4,CN(C)C(=O)c1cc2ccc(C3=CCCN(C(=O)c4cccnc4-c4cc(F)cc(F)c4)C3)cc2[nH]1 [Example I-94],10 to 100 µM
5,CN(C)C(=O)c1cc2cc(C3=CCCN(C(=O)Cc4ccccn4)C3)ccc2o1 [Example I-263],> 100 µM
6,CN(C)C(=O)c1cc2ccc(C3=CCCN(C(=O)CCS(=O)(=O)c4ccccc4)C3)cc2[nH]1 [Example I-66],1 to 10 µM
7,CN(C)C(=O)c1cc2cc(C3=CCCN(C(=O)CCn4ccnn4)C3)cc(CN3CC(N)C3)c2o1 [Example I-166],> 100 µM
8,COC(=O)c1cnn(-c2cc(C3=CCCN(C(=O)CCn4ccnn4)C3)cc3cc(C(=O)N(C)C)oc23)c1 [Example I-186],> 100 µM
9,CN(C)C(=O)c1cc2ccc(C3=CCCN(C(=O)C4COCC(=O)N4Cc4ccccc4)C3)cc2[nH]1 (stereo not drawn) [Example I-93],10 to 100 µM
10,CN(C)C(=O)c1cc2ccc(C3=CCCN(C(=O)Cc4c[nH]nn4)C3)cc2[nH]1 [Example I-38],> 100 µM
11,CN(C)C(=O)c1cc2cc(C3=CCCN(C(=O)Cc4cccnc4)C3)ccc2o1 [Example I-275],> 100 µM
12,NC(=O)c1cc2cc(C3=CCCN(C(=O)CCn4ccnn4)C3)ccc2o1 [Example I-213],> 100 µM
13,CN(C)C(=O)c1cc2cc(C3CCC(CO)N(C(=O)CCn4ccnn4)C3)ccc2o1 (stereo not drawn) [Example I-154],> 100 µM
14,CN(C)C(=O)c1cc2cc(C3=CCCN(C(=O)CCc4cn5cccnc5n4)C3)ccc2o1 [Example I-281],> 100 µM
15,COCc1oncc1C(=O)N1CCC=C(c2ccc3cc(C(=O)N(C)C)[nH]c3c2)C1 [Example I-145],> 100 µM
16,CN(C)C(=O)c1cc2cc(C3=CCCN(C(=O)Cn4ccnc4)C3)ccc2o1 [Example I-311],> 100 µM
17,CN(C)C(=O)c1cc2ccc(C3=CCCN(C(=O)C4CC(=O)N4)C3)cc2[nH]1 (stereo not drawn) [Example I-30],10 to 100 µM
18,"CN(C)C(=O)c1cc2cc([C@@H]3CC[C@H](CO)N(C(=O)CCn4ccnn4)C3)ccc2o1 (single isomer, unassigned) [Example I-156]",> 100 µM
19,O=C(CCn1ccnn1)N1CCC=C(c2ccc3cc(-c4ccccn4)[nH]c3c2)C1 [Example I-119],> 100 µM
20,"C[C@@H]1CCCCN1C(=O)c1cc2ccc(C3=CCCN(C(=O)CCn4ccnn4)C3)cc2[nH]1 (single isomer, unassigned) [Example I-130]",> 100 µM
21,CN(C)C(=O)c1cc2ccc(C3=CCCN(C(=O)C4(c5ccc(Cl)cc5)CC(O)C4)C3)cc2[nH]1 (stereo not drawn) [Example I-78],> 100 µM
22,"CC(=O)N1CCc2ccccc2[C@H]1C(=O)N1CCC=C(c2ccc3oc(C(=O)N(C)C)cc3c2)C1 (single isomer, unassigned) [Example I-176]",> 100 µM

row,SMILES,IC50
1,Cc1ccc(C(=O)N2CCC=C(c3ccc4cc(C(=O)N(C)C)[nH]c4c3)C2)c(=O)n1-c1ccc(F)cc1 [Example I-111],> 100 µM
2,CC(=O)Nc1ccc(CC(=O)N2CCC=C(c3ccc4oc(C(=O)N(C)C)cc4c3)C2)cc1 [Example I-287],> 100 µM
3,CC1CCCN(C(=O)c2cc3ccc(C4=CCCN(C(=O)CCn5ccnn5)C4)cc3[nH]2)C1 (stereo not drawn) [Example I-126],> 100 µM
4,CN(C)C(=O)c1cc2cc(C3=CCCN(C(=O)CCc4nc5ccccc5s4)C3)ccc2o1 [Example I-237],> 100 µM
5,O=C(CCn1ccnn1)N1CCC=C(c2ccc3occc3c2)C1 [Example I-278],> 100 µM
6,CC(Oc1ccccn1)C(=O)N1CCC=C(c2ccc3cc(C(=O)N(C)C)[nH]c3c2)C1 (stereo not drawn) [Example I-54],10 to 100 µM
7,CNc1ccc(-c2cc(C3=CCCN(C(=O)CCn4ccnn4)C3)cc3[nH]c(C(=O)N(C)C)cc23)nc1 [Example I-116],0.1 to 1 µM
8,CN(C)C(=O)c1cc2ccc(C3=CCCN(C(=O)OCn4ccnn4)C3)cc2[nH]1 [Example I-120],> 100 µM
9,CN(C)C(=O)c1cc2cc(C3=CCCN(C(=O)Cc4ccc5ccccc5c4)C3)ccc2o1 [Example I-295],> 100 µM
10,CC(=O)OCC(C(=O)N1CCC=C(c2ccc3cc(C(=O)N(C)C)[nH]c3c2)C1)c1ccccc1 (stereo not drawn) [Example I-73],10 to 100 µM
11,CC(=O)NCc1ccc(CC(=O)N2CCC=C(c3ccc4oc(C(=O)N(C)C)cc4c3)C2)cc1 [Example I-252],> 100 µM
12,CN(C)C(=O)c1cc2ccc(C3=CCCN(C(=O)c4ccnnc4O)C3)cc2[nH]1 [Example I-146],> 100 µM
13,CN(C)C(=O)c1cc2ccc(C3=CCCN(C(=O)C4CCN(S(C)(=O)=O)CC4)C3)cc2[nH]1 [Example I-140],> 100 µM
14,CN(C)C(=O)c1cc2ccc(C3=CCCN(C(=O)C4(c5ccc(C(F)(F)F)cc5)CC4)C3)cc2[nH]1 [Example I-84],> 100 µM
15,CN(C)C(=O)c1cc2cc(C3=CCCN(C(=O)C4Cc5c(cccc5OCCN)CN4C=O)C3)ccc2o1 (stereo not drawn) [Example I-171],10 to 100 µM
16,CN(C)C(=O)c1cc2cc(C3=CCCN(C(=O)[C@H]4Cc5ccc(O)cc5CN4)C3)ccc2o1 [Example I-239],> 100 µM
17,CN(C)C(=O)c1cc2cc(C3=CCCN(C(=O)C4Cc5c(N)cccc5CN4C=O)C3)ccc2o1 (stereo not drawn) [Example I-8],0.1 to 1 µM
18,CNC1(C(=O)N2CCC=C(c3ccc4oc(C(=O)N(C)C)cc4c3)C2)CCc2ccccc2C1 (stereo not drawn) [Example I-5],10 to 100 µM
19,CN(C)C(=O)c1cc2cc(C3=CCCN(C(=O)CCc4ncccn4)C3)ccc2o1 [Example I-231],> 100 µM
20,CN(C)C(=O)c1cc2ccc(C3=CCCN(C(=O)CCn4ncc5cc(Cl)ncc54)C3)cc2[nH]1 [Example I-80],> 100 µM
21,CN(C)C(=O)c1cc2ccc(C3=CCCN(C(=O)[C@@H](Cn4ccnn4)c4cccc(O)c4)C3)cc2[nH]1 [Example I-122],> 100 µM
22,CN(C)C(=O)c1cc2ccc(C3=CCCN(C(=O)C(CO)c4ccccc4)C3)cc2[nH]1 (stereo not drawn) [Example I-159],> 100 µM
